Experimental data reported in patent US20260355171A1, “INHIBITORS AND USES THEREFOR” (priority 2022, published 2026).
Values joined by “and” are separate entries in the source; they are usually repeats but may differ in a detail not shown here. Equal entries are not always repeated. Where two headings read alike, the source gives them in different places.

Tests used:
[1] = tested on: PHP.B hSyn-NSP5-V5 adeno-associated virus; test: Weight loss after AAV injection; format: in vivo, mouse; settings: 10 mg/kg daily, vs Paxlovid and vehicle; significant at day 19 to end
Protocol: In vivo testing was performed on 5-month-old female C57BL/6 wildtype mice injected intravenously with PHP.B hSyn-NSP5-V5 adeno-associated virus (AAV) and treated daily with compound 22 (10 mg/kg), Paxlovid (nirmatrelvir/ritonavir) (10 mg/kg nirmatrelvir: 3.33 mg/kg ritonavir) or a vehicle control (n=10 per group).
Weight loss was monitored over a 21-day period post injection with the AAV.

[2] = tested on: primary neurons; test: Cytotoxicity / neuronal cell death in the presence of NSP5 (PI/DAPI)
[3] = Tissue (brain/lung) exposure, IP administration; format: in vivo, mouse; settings: for Unbound Brain Parenchyma Concentration, individual / Unbound Plasma Concentration, individual / B:P ratio (brain:plasma), individual / L:P ratio, individual / Unbound B:P ratio (Kp,uu), individual / concentration / Kp at 0.5 h / concentration at 0.5 h / Kp uu at 0.5 h / Kp at 4 h / concentration at 4 h / Kp uu at 4 h / concentration at 24 h: 10 mg/kg; for Kp at 0.5 h / concentration at 0.5 h / Kp uu at 0.5 h / Kp at 4 h / concentration at 4 h / Kp uu at 4 h / concentration at 24 h: mouse, ip
Protocol: For the tissue collection, at 0.5, 4 and 24 h following IP administration, mice were anaesthetised (using gaseous isoflurane). Immediately after the submandibular bleed, mice were killed via cervical dislocation and the whole brain and lung were removed from each carcase. All these tissues were blotted to remove excess blood, placed into pre-weighed polypropylene vials and weighed. Tissue samples were snap frozen in dry ice and subsequently stored frozen at −80 °C until analysis. A summary of the bioanalytical method is included in Table 5.
(§1) Tissue: Pre-weighed tissue samples (brain and lung) were homogenised using a gentleMACS™ Octo Dissociator (Miltenyi Biotec, Macquarie Park, Australia) in buffer containing an EDTA/potassium fluoride solution (0.1 M/4 mg/mL) as a stabilisation cocktail to minimise the potential for ex vivo degradation (3 mL cocktail/g tissue). The tissue homogenate was briefly centrifuged (RCF=79×g) for 10 seconds to separate the foam layer before transferring an aliquot of the tissue homogenate (200 μL) to a fresh Eppendorf tube for sample extraction. Calibration standards were prepared by spiking blank brain and lung homogenate (200 μL) with the solution standards (10 μL) and the internal standard (10 μL). Study samples (for all tissue types) were similarly prepared, except that acetonitrile (10 μL) was added instead of solution standards to maintain the same volume. Protein precipitation was carried out by the addition of a 3-fold volume of acetonitrile, followed by vortex mixing and centrifugation (RCF=9391×g) for 3 min to recover the supernatant for analysis.
The concentration of compound 22 in brain or lung parenchyma was calculated on the basis of the measured concentration in brain or lung homogenate, after correcting for the contribution of compound contained within the vascular space of brain or lung samples as follows:
Ctissue=Ctissue homogentate−Ctissue vasculature where Ctissue vasculature=Cplasma×Vp • Ctissue=concentration of compound in brain or lung parenchyma (μM) • Ctissue homogenate=concentration of compound in brain or lung homogenate (μM) • Ctissue vasculature=concentration of compound in brain or lung vasculature (μM) • Cplasma=concentration of compound in plasma (μM)
Vp=brain plasma volume (0.017 mL/g for male C57BL/6 mice; Nicolazzo et al. (2010), Clinical and Experimental Pharmacology and Physiology, 37: 647-649) or lung plasma volume (0.16 mL/g of tissue, Boswell et al. (2014), Molecular Pharmaceutics, 11: 1591-1598)
Concentrations in brain or lung parenchyma were converted from units of ng/g to μM assuming a specific gravity of 1.
For each mouse, the tissue (brain or lung)-to-plasma concentration ratio (based on total concentrations in each matrix) was calculated as: […]
For brain uptake, the unbound brain-to-plasma partition coefficient (based on unbound concentrations in each matrix) was calculated as: […]

[4] = tested on: primary neurons; test: Effect of compounds on neuronal cell death caused by NSP5 (Example 6); format: cell-based, mouse; settings: 10 μM, 48 hours
[5] = tested on: primary neurons; test: Neuronal cell death in the presence of staurosporine; format: cell-based, mouse; settings: 1 or 10 μM compound, 5 μM staurosporine
Protocol: Primary neurons were treated with 0.4, 1, 2, 10 or 50 μM of compound 2 or compound 22 (prepared according to Example 2). NSP5 was added to primary neurons at DIV11, and compound 2 or 22 was added 48 hours later. Cells were treated with propidium iodide 48 hours after compound addition. Cells were washed with PBS and fixed with 4% PFA. Cells were then washed and stained with DAPI. Images of cells were taken with ZEISS Axioscan 7 microscope slide scanner. Cell death was determined by Image J analysis, counting the death cell (red, PI)) vs all cells (blue, DAPI).
One hour after compound addition (1 or 10 μM of compound 2 or compound 22) neurons were treated with a cytotoxic agent (100 μM N-methyl-D-aspartate (NMDA), 100 μM H2O2 or 5 μM staurosporine). One hour after treatment with the cytotoxic agent, the media was replaced with fresh media and the neurons were incubated for 24 hours. A final concentration of 1 μM propidium iodide (PI) was added into the well and incubated for 5 mins. Cells were washed with phosphate-buffered saline (PBS) and then fixed with 4% PFA. Cells were then washed and stained with DAPI, and cell death determined as described above.

[6] = Stability in brain and lung homogenates; format: in vitro ADME, mouse; settings: sample processing (15 min), EDTA/potassium fluoride
Protocol: as §1

[7] = 0.5 h, IP 10 mg/kg, individual mice
[8] = 0.5 h, IP 10 mg/kg, individual mice, 30 min
[9] = 4.0 h, IP 10 mg/kg, individual mice
[10] = 4.0 h, IP 10 mg/kg, individual mice, 240 min

SMILES: NC(=O)C1CCN(c2ncccc2CNCc2cccc3[nH]ccc23)CC1 [Compound 22]
- Weight loss from 17 days post injection [1]: weight loss was less severe
- Reduction of neuronal cell death caused by NSP5 ([2]; 0.4, 1, 2, 10 or 50 μM, 48 hours): selectively reduced neuronal cell death caused by NSP5
- Cell death caused by compound ([2]; therapeutic concentrations (nM to low μM)): did not cause any cell death
- Unbound Brain Parenchyma Concentration, individual [3, 7]: 0.160 µM and 0.138 µM and 0.169 µM
- Unbound Plasma Concentration, individual [3, 7]: 1.05 µM and 0.704 µM and 0.841 µM
- B:P ratio (brain:plasma), individual [3, 8]: 0.23
- L:P ratio, individual [3, 8]: 2.8 and 2.6
- Unbound B:P ratio (Kp,uu), individual [3, 8]: 0.20
- concentration ([3]; 0.5 h, IP 10 mg/kg, individual mice, 30 min, read-out: Total Brain Parenchyma Concentration, individual): 291 nM
- concentration ([3]; 0.5 h, IP 10 mg/kg, individual mice, 30 min, read-out: Total Lung Parenchyma Concentration, individual): 3560 nM and 4000 nM
- concentration ([3]; 0.5 h, IP 10 mg/kg, individual mice, 30 min, read-out: Total Plasma Concentration, individual): 1290 nM and 1540 nM
- Unbound Brain Parenchyma Concentration, mean ([3]; 0.5 h, IP 10 mg/kg, mean): 0.155 µM
- Unbound Plasma Concentration, mean ([3]; 0.5 h, IP 10 mg/kg, mean): 0.866 µM
- Unbound Brain Parenchyma Concentration, individual [3, 9]: 0.0292 µM and 0.0285 µM
- Unbound Plasma Concentration, individual [3, 9]: 0.0043 µM and 0.0033 µM
- B:P ratio (brain:plasma), individual [3, 10]: 9.91
- L:P ratio, individual [3, 10]: 68.6
- Unbound B:P ratio (Kp,uu), individual [3, 10]: 8.59
- concentration ([3]; 4.0 h, IP 10 mg/kg, individual mice, 240 min, read-out: Total Brain Parenchyma Concentration, individual): 60.1 nM
- concentration ([3]; 4.0 h, IP 10 mg/kg, individual mice, 240 min, read-out: Total Lung Parenchyma Concentration, individual): 416 nM
- concentration ([3]; 4.0 h, IP 10 mg/kg, individual mice, 240 min, read-out: Total Plasma Concentration, individual): 6.1 nM
- Unbound Brain Parenchyma Concentration, mean ([3]; 4.0 h, IP 10 mg/kg, mean): 0.0288 µM
- Unbound Plasma Concentration, mean ([3]; 4.0 h, IP 10 mg/kg, mean): 0.0038 µM
- Unbound Brain Parenchyma Concentration, individual ([3]; 24 h, IP 10 mg/kg, individual mice): 0.0060 µM and 0.0005 µM
- concentration ([3]; 24 h, IP 10 mg/kg, individual mice, 1440 min, read-out: Total Lung Parenchyma Concentration, individual): 2.5 nM and 1.6 nM and 0.7 nM
- Apparent tissue-to-plasma ratio (B:P or L:P) at 4 h versus 0.5 h ([3]; IP 10 mg/kg): substantially higher than that at 0.5 h
- Duration of measurable concentrations in brain ([3]; IP 10 mg/kg): ≤ 4 h
- Duration of measurable concentrations in lung ([3]; IP 10 mg/kg): up to 24 hours
- Unbound Brain Parenchyma Concentration, mean ([3]; IP 10 mg/kg, mean): 0.0033 µM
- Kp at 0.5 h ([3]; brain, 0.5 h, individual mice, read-out: B:P ratio (brain:plasma), individual): 0.18
- concentration at 0.5 h ([3]; brain, 0.5 h, individual mice, read-out: Total Brain Parenchyma Concentration, individual): 337 nM
- Kp uu at 0.5 h ([3]; brain, 0.5 h, individual mice, read-out: Unbound B:P ratio (Kp,uu), individual): 0.15
- Kp at 0.5 h ([3]; brain, 0.5 h, mean, read-out: B:P ratio (brain:plasma), mean): 0.21
- concentration at 0.5 h ([3]; brain, 0.5 h, mean, read-out: Total Brain Parenchyma Concentration, mean): 328 nM
- Kp uu at 0.5 h ([3]; brain, 0.5 h, mean, read-out: Unbound B:P ratio (Kp,uu), mean): 0.18
- Kp at 4 h ([3]; brain, 4.0 h, individual mice, read-out: B:P ratio (brain:plasma), individual): 7.9
- concentration at 4 h ([3]; brain, 4.0 h, individual mice, read-out: Total Brain Parenchyma Concentration, individual): 61.6 nM
- Kp uu at 4 h ([3]; brain, 4.0 h, individual mice, read-out: Unbound B:P ratio (Kp,uu), individual): 6.84
- concentration at 4 h ([3]; brain, 4.0 h, mean, mouse 16 excluded, read-out: Total Brain Parenchyma Concentration, mean): 60.9 nM
- Kp at 4 h ([3]; brain, 4.0 h, mean, read-out: B:P ratio (brain:plasma), mean): 8.9
- Kp uu at 4 h ([3]; brain, 4.0 h, mean, read-out: Unbound B:P ratio (Kp,uu), mean): 7.72
- concentration at 24 h ([3]; brain, 24 h, mean, read-out: Total Brain Parenchyma Concentration, mean): 6.9 nM
- Kp at 0.5 h ([3]; lung, 0.5 h, individual mice, read-out: L:P ratio, individual): 2
- concentration at 0.5 h ([3]; lung, 0.5 h, individual mice, read-out: Total Lung Parenchyma Concentration, individual): 3830 nM
- Kp at 0.5 h ([3]; lung, 0.5 h, mean, read-out: L:P ratio, mean): 2.5
- concentration at 0.5 h ([3]; lung, 0.5 h, mean, read-out: Total Lung Parenchyma Concentration, mean): 3800 nM
- Kp at 4 h ([3]; lung, 4.0 h, individual mice, read-out: L:P ratio, individual): 45.7
- concentration at 4 h ([3]; lung, 4.0 h, individual mice, read-out: Total Lung Parenchyma Concentration, individual): 356 nM
- concentration at 4 h ([3]; lung, 4.0 h, mean, mouse 16 excluded, read-out: Total Lung Parenchyma Concentration, mean): 386 nM
- Kp at 4 h ([3]; lung, 4.0 h, mean, read-out: L:P ratio, mean): 57.1
- concentration at 24 h ([3]; lung, 24 h, mean, read-out: Total Lung Parenchyma Concentration, mean): 2.1 nM
- concentration at 0.5 h ([3]; plasma, 0.5 h, individual mice, read-out: Total Plasma Concentration, individual): 1920 nM
- concentration at 0.5 h ([3]; plasma, 0.5 h, mean, read-out: Total Plasma Concentration, mean): 1580 nM
- concentration at 4 h ([3]; plasma, 4.0 h, individual mice, read-out: Total Plasma Concentration, individual): 7.8 nM
- concentration at 4 h ([3]; plasma, 4.0 h, mean, mouse 16 excluded, read-out: Total Plasma Concentration, mean): 6.9 nM
- Reduction of neuronal cell death caused by NSP5 [4]: greatest activity
- Protection from staurosporine-induced neurotoxicity [5]: did not protect
- Stability in brain and lung homogenates [6]: stable
